How the values were obtained:
PfFNT [1] = target: T1, PfFNT (Plasmodium falciparum, UniProt O77389); assay: Fluorescence cross-correlation spectroscopy (FCCS) competition binding to solubilized PfFNT-GFP; conditions: competition against BH267.meta-DY647 tracer, Cheng Prusoff; read-out: Ki (FCCS, protein)
T1 construct: expressed in transfected cells; membranes solubilized
T1 sequence (O77389 1-309): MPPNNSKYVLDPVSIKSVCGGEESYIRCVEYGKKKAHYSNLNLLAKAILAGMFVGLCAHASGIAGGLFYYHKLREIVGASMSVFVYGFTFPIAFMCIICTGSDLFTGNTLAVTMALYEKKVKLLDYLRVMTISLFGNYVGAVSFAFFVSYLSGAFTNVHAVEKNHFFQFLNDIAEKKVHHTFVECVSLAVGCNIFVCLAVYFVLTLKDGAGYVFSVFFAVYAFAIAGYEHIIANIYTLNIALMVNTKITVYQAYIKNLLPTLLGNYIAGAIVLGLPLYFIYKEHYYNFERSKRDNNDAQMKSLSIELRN
Method: FCCS measurements were conducted and analyzed as before.[20],[30] Briefly, membranes of stably transfected cells expressing PfFNT with a C-terminal GFP (green) were solubilized. BH267.meta 2 fused with DY647 (red) was used as a tracer to monitor the binding of compounds in a competition assay. Assays were done in […] glass bottom plates (cat. no. PS96B-G175, SWISSCI, Switzerland) using a plate reader (Insight, Evotec Technologies, Germany) fitted with a U-Apo300 40× water immersion lens, NA 1.15 (Olympus, Japan). Excitation was done with an argon-ion laser (488 nm) and a helium–neon laser (633 nm). Fluorescence fluctuations were recorded 10 times for 5 s per sample and fitted using FCS+ plus Analyze (PerkinElmer software). Initially, IC50 values were determined from the concentration of the dual labeled complex titrated against a competitor in a range of 100 pM to 100 μM (Figure S1). Then, Ki values were calculated using the Cheng Prusoff equation[31] based on the previously determined KD value for the BH267.meta-DY647 tracer.[20]

PfFNT [2] = target: T1, PfFNT; conditions: 14C-lactate transport, PfFNT wild type; ref Golldack[4] et al. 2017; read-out: IC50 (transport, yeast); cited from earlier work
[3] = test system: Plasmodium falciparum 3D7 parasites; assay: P. falciparum 3D7 culture growth assay in erythrocytes (in vitro activity); assay type: cell-based; conditions: 50 nM compound
Method: The parasitemia was measured using an LSR II FACS (BD Biosciences) as described.[34],[35] Growth was assessed as % of untreated control. EC50 curves were plotted using Graph Pad Prism.
Transport assays in yeast were done in triplicate biological replicates. At least nine technical replicates were measured around the IC50 value, concentrations with no or full inhibition were determined from at least three technical replicates. […] IC50 and EC50 curves were fitted by the Hill equation with variable slope (Graph Pad Prism 10). Error bars denote ± SEM (for n ≥ 3) or ± range (for n = 2). […] Cytotoxicity was determined from biological triplicates; error is shown as SEM.

[4] = test system: Plasmodium falciparum 3D7 parasites; conditions: ref Golldack[4] et al. 2017; read-out: EC50 (in vitro, 3D7); cited from earlier work

In the case of “MMV007839 [compound 1, reference compound]”, the Ki (PfFNT [1]) is listed as 83 ± 33 nM, the IC50 (PfFNT [2]) is listed as 170 ± 10 nM and the “% Growth at 50 nM (in vitro, 3D7)” value ([3]; % of untreated control) is listed as over 90%. For the same substance, the “inhibitory activity at 50 nM (in vitro, 3D7)” value ([3]; 100 minus % growth) was under 10% and the EC50 [4] was 140 ± 10 nM.
